# Test results published in patent publication US20240216396A1, “NEUROACTIVE STEROID FOR USE IN TREATING MAJOR DEPRESSIVE DISORDER AND […] A LACTATING FEMALE” (Sage Therapeutics, Inc., priority 2021, published 2024).
# Legend:
# [1] = Breast milk production (volume) in healthy lactating participants; format: in vivo, human; conditions: 30 mg once-daily oral for 5 days; inter-participant variability noted
# From the text: (§1) Compound (1) is an investigational, synthetic, oral neuroactive steroid under investigation as a once-daily therapy for major depressive disorder and postpartum depression. This open-label study evaluated the extent of Compound (1) transfer into breast milk, breast milk production (volume), pharmacokinetics (PK), plasma protein binding, safety, and tolerability in healthy lactating participants.
# (§2) Healthy volunteers (N=15) aged 18-45 years, >12 weeks postpartum, actively lactating, and pumping or breast feeding ≥3 times per day orally self-administered Compound (1) 30 mg once-daily with food for 5 days. Breast milk was collected from Day −3 through Day 12. Blood samples for PK and plasma protein binding analysis were collected predose (Day 1), on Days 5-6, and during follow-up (Days 7, 9, and 12). The relationship between plasma and breast milk concentrations was examined with population PK modeling.
# [2] = Population PK modeling of the relationship between plasma and breast milk concentrations; format: in vivo, human
# Protocol: as §2
# plasma protein = test: Plasma protein binding analysis of blood samples from healthy lactating participants; format: in vitro ADME; conditions: female, human, across participants, 30 mg once-daily oral with food for 5 days, read-out: free fraction in plasma (plasma protein binding)
# From the text: as §1, §2
# [3] = Safety and tolerability in healthy lactating participants; format: in vivo, human
# From the text: as §1, §2
# [4] = Open-label study: transfer of Compound (1) into breast milk of healthy lactating women; format: in vivo, human
# From the text: as §1, §2
# [5] = test system: synaptic and extrasynaptic GABAA receptors; conditions: cited from earlier work
compound,measurement,setting,value
"C[C@@]1(O)CC[C@H]2[C@H](CC[C@@H]3[C@@H]2CC[C@]2(C)[C@@H](C(=O)Cn4cc(C#N)cn4)CC[C@@H]32)C1 [Compound (1), 1-(2-((3R,5R,8R,9R,10S,13S,14S,17S)-3-hydroxy-3,13-dimethylhexadecahydro-1H-cyclopenta[a]phenanthren-17-yl)-2-oxoethyl)-1H-pyrazole-4-carbonitrile]",decrease of volume of milk collected from baseline,[1],8.3%
same,Kp,"[2]; female, human, breast milk/plasma, oral, 30 mg, constant, population PK modeling, read-out: partition coefficient between milk and plasma",0.501
same,relationship of plasma concentrations with time or collected milk volume,[2]; in vivo,no apparent relationship
same,between-subject variability in milk/plasma partitioning,[2]; population PK modeling,23%
same,fraction unbound,plasma protein,≤ 0.0052
same,tolerability,"[3]; 30 mg for 5 days, healthy lactating participants",well-tolerated
same,adverse events reported,"[3]; 30 mg once-daily oral for 5 days, N=15","No deaths, serious adverse events, moderate or severe treatment-emergent adverse events (TEAEs), or TEAEs leading to discontinuation or study withdrawal were reported"
same,breast milk concentration relative to plasma concentration,[4]; 30 mg once-daily for 5 days,approximately one-half
same,daily infant dose,"[4]; Day 5, 30 mg once-daily oral for 5 days",0.00125 mg/kg/day
same,estimated mean relative infant dose (RID),"[4]; Day 5, 30 mg once-daily oral for 5 days, compared to maternal dose",0.357%
same,action on GABAA receptors,[5],positive allosteric modulator
